Measured values: patent US20240108734A1, “METHODS FOR TREATING AND AMELIORATING CANCER” (The Regents of the University of California, priority 2021, published 2024)

Legend:
BC CML CD34+ cells (LSC) = assay: SL/M2 stromal co-culture, clonogenic survival and self-renewal (replating) assays, BC CML; format: cell-based, human; settings: imetelstat monotherapy, 1 to 10 μM, vs mismatch control
Text: Lentiviral human wild-type and mutant ADAR1^E912A (pCDH-EF1-T2A-copGFP) and shRNA targeting ADAR1 were produced according to published protocols^27,37. In Vitro MPN-SPC and LSC Survival and Self-Renewal Assays with Imetelstat To assess MPN progenitor and LSC survival and self-renewal in vitro, human primary CD34^+ cells selected from BC CML (n=5), MF (n=9) or age matched normal bone marrow (a-NBM, n=4) were co-cultured with SL/M2 stromal cells for 7-14 days, and then treated with imetelstat alone or combined with dasatinib for BC CML or Pacritinib for MF. Colony forming and replating assays were performed as previously described^32.
To assess MPN progenitor and LSC survival and self-renewal in vitro, human primary CD34^+ cells selected from BC CML (n=5), MF (n=9) or age matched normal bone marrow (a-NBM, n=4) were co-cultured with SL/M2 stromal cells for 7-14 days, and then treated with Imetelstat alone or combined with dasatinib for BC CML or Pacritinib for MF. Colony forming and replating assays were performed as previously described^32,33.
FIG. 3A. A schematic illustration of SL/M2 stromal co-cultures established to quantify in vitro MPN-SPC and LSC survival and self-renewal. Human primary CD34^+ cells selected from BC CML (n=5), MF (n=9) or age matched normal bone marrow (a-NBM, n=4) were co-cultured with SL/M2 stromal cells for 7-14 days. […]

[1] = tested on: MF CD34+ cells engrafted in NSG-SGM3 mice; assay: Humanized MF MPN-SPC (pre-LSC) mouse model; format: in vivo
Text: Human CD34^+ cells isolated from MF and BC CML samples (Table S2, illustrated as FIG. 11) were transplanted intravenously into adult NSG-SGM3 (expressing human IL-3, GM-CSF and SCF) mice following 300 cGy of irradiation or intrahepatically into neonatal RAG2^−/− yc^−/− mice, respectively^27,32.
Human CD34^+ cells isolated from MF and BC CML (Table S2) samples were transplanted intravenously into adult NSG-SGM3 (expressing human IL-3, GM-CSF and SCF) mice following
300 cGy of irradiation or intrahepatically into newborn RAG2^−/−[…]c^−/− mice^28,32,34. Post-transplantation (13 to 16 weeks), bone marrow and spleen were collected and analyzed by FACS^32. Mice were treated with vehicle, mismatch or imetelstat at varying doses. Also, MF CD34^+ cells were transduced with pCDH lentivirus control or ADAR1-OE lentivirus with a MOI of 100 for 48 hours, followed by intravenous transplantation into NSG-SGM3 mice to assess the impact of ADAR1 overexpression on MF engraftment.
FIG. 4A. A schema of humanized BC CML LSC and MF SPC mouse models. Human CD34^+ cells sorted from either BC CML or myelofibrosis patient blood or marrow were transplanted into neonatal Rag2^−/−[…]c^−/− mice or intravenously transplanted into adult NSG-S mice. Engrafted BC CML or MF mouse models were randomized into (1) vehicle control, (2) mismatch control, and (3) imetelstat treatment groups (n≥3/group). Bone marrow (BM) and spleen were collected when completing the dosing plan, and the single-cell suspension was analyzed by FACS.
FIG. 4B. Bone marrow from each treatment group was collected for histological examination and FACS analysis. Left: Photomicrogaphs depict reticulin staining, DAPI staining, human CD45^+ expression and merged DAPI and CD45 images in bone marrow collected from no transplant, vehicle, and mismatch controls as well as from imetelstat treated myelofibrosis (MF) mouse models. Right: FACS analysis plots depicting forward scatter (FSC, y-axis) and human CD45 engraftment (x-axis) in no transplant, vehicle, and mismatch controls as well as imetelstat treated MF mouse models.

telomerase = target: T1, telomerase (Homo sapiens, UniProt O14746); assay: TRAP telomerase activity assay in BC CML engrafted human CD45+ cells; format: in vivo; settings: imetelstat compared with vehicle, p<0.0002
T1 construct: Cell lysates from 5×10^5 CD34^+ selected cells from BC CML engrafted mice or K562 cells were prepared; endogenous in cells; host or cells: human CD45+ / CD34+ cells selected from bone marrow or spleen of BC CML engrafted mice
Procedure: Telomere length was determined using the Telomere PNA Kit/FITC for Flow Cytometry (Dako, Cat #K5327) with a MACSQuant10 and analyzed with FlowJo software. The Relative Telomere Length (RTL) was calculated by dividing the mean fluorescence intensity (MFI) of the test sample G0/G1 population by the MFI of the normal peripheral blood reference G0/G1 population using the Cycletest™ Plus DNA Kit (BD, Cat #340242). Telomerase activity was determined using the TRAPeze Kit RT Telomerase Detection Kit (Millipore, Catalog No. S7710).
Samples were selected from engrafted mouse bone marrow or spleen with human CD45+ immunomagnetic beads (Miltenyi). Telomere length was determined by using the Telomere PNA Kit/FITC for Flow Cytometry (Dako, Cat #K5327). Samples were run on the MACSQuant10 and analyzed with FlowJo software. The Relative Telomere Length (RTL) was calculated. The 1301 cell line was utilized as control cells. The DNA index was determined with the (BD Cycletest™ Plus DNA Kit, Cat #340242). […] Telomerase activity was determined by using TRAPeze Kit RT Telomerase Detection Kit (Millipore, Catalog No. S7710). […]
FIG. 5D. Telomerase activity in BC CML engrafted human CD45^+ cells, as measured by TRAP assay, in vehicle (red), mismatch control (blue) and imetelstat (green) treated BC CML mice.

T1 sequence (O14746 whole entry): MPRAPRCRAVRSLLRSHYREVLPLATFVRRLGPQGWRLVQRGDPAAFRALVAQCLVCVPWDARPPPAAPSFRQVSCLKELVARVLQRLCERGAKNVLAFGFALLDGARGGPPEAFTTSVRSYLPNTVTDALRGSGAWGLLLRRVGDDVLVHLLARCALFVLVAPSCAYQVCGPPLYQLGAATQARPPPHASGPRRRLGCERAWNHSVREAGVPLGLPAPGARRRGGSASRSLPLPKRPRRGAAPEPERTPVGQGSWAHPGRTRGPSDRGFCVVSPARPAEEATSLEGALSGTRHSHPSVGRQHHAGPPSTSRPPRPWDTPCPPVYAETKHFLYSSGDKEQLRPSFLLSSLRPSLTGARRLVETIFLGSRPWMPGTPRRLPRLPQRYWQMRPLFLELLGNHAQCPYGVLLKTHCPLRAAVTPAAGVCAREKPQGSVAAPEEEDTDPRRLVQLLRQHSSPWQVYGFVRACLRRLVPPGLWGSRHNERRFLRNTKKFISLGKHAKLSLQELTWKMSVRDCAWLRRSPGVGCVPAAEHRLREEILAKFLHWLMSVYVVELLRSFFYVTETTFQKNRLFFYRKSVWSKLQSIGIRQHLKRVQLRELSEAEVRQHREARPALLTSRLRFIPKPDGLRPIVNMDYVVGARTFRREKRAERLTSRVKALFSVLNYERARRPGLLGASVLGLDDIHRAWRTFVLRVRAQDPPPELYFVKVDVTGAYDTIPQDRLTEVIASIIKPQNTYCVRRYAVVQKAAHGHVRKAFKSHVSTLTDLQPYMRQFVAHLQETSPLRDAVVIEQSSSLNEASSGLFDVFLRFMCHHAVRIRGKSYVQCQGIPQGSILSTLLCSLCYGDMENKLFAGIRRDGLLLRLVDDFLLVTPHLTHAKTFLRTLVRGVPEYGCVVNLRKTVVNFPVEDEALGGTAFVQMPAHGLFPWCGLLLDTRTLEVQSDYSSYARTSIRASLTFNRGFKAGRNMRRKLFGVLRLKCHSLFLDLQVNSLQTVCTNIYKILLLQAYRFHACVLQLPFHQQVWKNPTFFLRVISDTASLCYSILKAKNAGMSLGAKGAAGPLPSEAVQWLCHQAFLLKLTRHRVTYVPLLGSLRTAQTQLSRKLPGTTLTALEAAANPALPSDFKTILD
T1 sequence (O60832 whole entry partner): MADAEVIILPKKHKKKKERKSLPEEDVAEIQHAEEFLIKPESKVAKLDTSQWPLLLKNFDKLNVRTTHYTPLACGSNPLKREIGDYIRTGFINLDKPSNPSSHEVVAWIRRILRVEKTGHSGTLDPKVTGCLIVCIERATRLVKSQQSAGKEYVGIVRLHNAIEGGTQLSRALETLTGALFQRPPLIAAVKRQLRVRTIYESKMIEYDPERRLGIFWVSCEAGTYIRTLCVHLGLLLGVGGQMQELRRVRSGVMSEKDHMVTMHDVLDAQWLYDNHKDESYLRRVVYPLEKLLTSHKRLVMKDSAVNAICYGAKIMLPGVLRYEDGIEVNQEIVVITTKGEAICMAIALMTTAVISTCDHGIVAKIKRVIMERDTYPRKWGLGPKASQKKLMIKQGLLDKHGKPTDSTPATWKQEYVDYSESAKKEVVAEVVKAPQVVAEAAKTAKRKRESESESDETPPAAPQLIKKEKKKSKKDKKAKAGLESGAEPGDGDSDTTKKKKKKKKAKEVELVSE
T1 sequence (Q9NX24 whole entry partner): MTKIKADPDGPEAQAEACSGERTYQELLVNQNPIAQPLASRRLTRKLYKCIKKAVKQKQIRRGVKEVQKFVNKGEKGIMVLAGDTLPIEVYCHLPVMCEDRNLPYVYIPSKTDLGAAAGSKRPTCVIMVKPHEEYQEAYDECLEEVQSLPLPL
T1 sequence (Q9NPE3 whole entry partner): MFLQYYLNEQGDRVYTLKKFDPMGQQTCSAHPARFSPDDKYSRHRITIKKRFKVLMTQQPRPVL
T1 sequence (Q9NY12 whole entry partner): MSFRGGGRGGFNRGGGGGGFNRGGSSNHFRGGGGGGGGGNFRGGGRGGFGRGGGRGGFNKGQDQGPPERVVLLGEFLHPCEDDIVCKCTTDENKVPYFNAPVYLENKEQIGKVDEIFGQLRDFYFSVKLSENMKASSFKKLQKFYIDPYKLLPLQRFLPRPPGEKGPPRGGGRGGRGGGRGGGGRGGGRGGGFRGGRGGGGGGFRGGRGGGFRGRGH
T1 sequence (Q9BUR4 whole entry partner): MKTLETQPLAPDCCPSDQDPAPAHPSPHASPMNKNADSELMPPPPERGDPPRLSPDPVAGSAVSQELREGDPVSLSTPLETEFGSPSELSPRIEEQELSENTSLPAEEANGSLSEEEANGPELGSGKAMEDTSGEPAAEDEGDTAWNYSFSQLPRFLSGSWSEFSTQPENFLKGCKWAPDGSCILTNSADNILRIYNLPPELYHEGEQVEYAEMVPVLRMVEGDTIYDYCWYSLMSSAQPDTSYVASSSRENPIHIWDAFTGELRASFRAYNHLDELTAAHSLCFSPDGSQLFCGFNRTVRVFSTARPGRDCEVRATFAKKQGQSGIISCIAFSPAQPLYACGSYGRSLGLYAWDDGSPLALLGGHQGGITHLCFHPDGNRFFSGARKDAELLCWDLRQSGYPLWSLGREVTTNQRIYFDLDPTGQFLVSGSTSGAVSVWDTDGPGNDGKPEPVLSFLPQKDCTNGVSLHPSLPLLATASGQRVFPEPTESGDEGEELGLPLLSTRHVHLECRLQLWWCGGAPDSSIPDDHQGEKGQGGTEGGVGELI

## imetelstat
BC CML CD34+ cells (LSC)
  BC CML LSC replating (self-renewal) capacity: ineffective
[1]; MF318 mouse BM, compared to control treated mice, p<0.04
  progenitor (CD34+CD38+Lin-) engraftment by FACS: lower
[1]; MF mouse BM, compared to control treated mice, p<0.014
  human CD45+ engraftment by FACS: lower
[1]; bone marrow, vs vehicle and mismatch controls
  human CD45+ leukemic cell engraftment by confocal immunofluorescence microscopy: lower
[1]; compared to control treated mice
  splenomegaly: decreased splenomegaly
[1]; pre-LSC mouse models from 4 different MF samples, vs vehicle controls, p<0.01, t test
  proliferation of human CD45+ cells in bone marrow and spleen: significant reduction
[1]; vs vehicle and mismatch controls
  reticulin fibrosis in bone marrow (immunohistochemistry): less reticulin fibrosis
telomerase
  telomerase activity by TRAP assay: reduction
